The values that follow come from patent US12729382B2, “Tea plant CsVAAT3 gene and use thereof” (Anhui Agricultural University, priority 2022, dated 2026).

The test concerns wild-type BY4743 and yeast vacuolar amino acid mutants YPQ2, AVT2, AVT6. As to the kind of experiment: Yeast dotting growth phenotype on high-concentration theanine medium. The test is classed as cell-based. As to conditions: theanine 50 mM. The method, then: Yeast mutants YPQ2, AVT2, and AVT6 are high-concentration theanine-sensitive strains, and their growth is inhibited in a high-concentration theanine environment, which was used to verify the stress resistance of the selected genes. The YPQ2 strain was streaked on YPDA Agar Medium and cultured upside down in a constant temperature incubator at 28° C. for 2-3 days. A well-grown single colony was picked in a 2 mL centrifuge tube, added with 1 mL of YPDA Liquid Medium, and incubated at 28° C. on a shaker at 180 r/min for one day. 200 μL of well-grown yeast suspension was transferred to 30 mL of YPDA Liquid Medium, and incubated on a shaker at 28° C. and 180 r/min for 12-24 h. […] 500 μL of PEG mixture and 5 μL of DTT (1 M, ready for use) were added and vortexed. […]
A single colony was picked in 20 mL of SD-U […] medium and shaken to an OD600 value of about 1.0 at 28° C. and 180 r/min (for about 48 h); 4 mL of yeast suspension was pipetted and centrifuged at 5,000 rpm for 2 min, the supernatant was discarded (under aseptic operation), cells were resuspended with sterile water, and the OD600 value was detected; the yeast suspension was diluted with sterile water to an OD600 value of 0.6 (the difference between the OD600 values of each sample should not exceed 0.02); (under aseptic operation) the yeast suspension was diluted to 10^0, 10^−1, 10^−2, and 10^−3 in turn. […]

For `CCNC(=O)CC[C@H](N)C(=O)O` [theanine], the “growth of yeast under theanine treatment” value by setting is: (CsVAAT3-transformed yeast mutants (pDR196-CsVAAT3)) “normal growth state”; (wild-type BY4743 and mutants YPQ2, AVT2, AVT6 (empty vector pDR196), solid medium, 30° C., about three days) “significantly inhibited”.
